PMC12521527, “In vivo self-assembled nano-PROTAC for the dual degradation of AR and HSP90 to overcome castration-resistant prostate cancer resistance” (Signal Transduction and Targeted Therapy, 2025)
Numbered stars: 1 amine (or outer) side, 2 acyl side, 3 side chain; on linkers, the order of the positions; unused ones are H or OH. Square brackets hold non-standard residues; d marks the D form. Peptide text beside a SMILES is read from it. * marks the point of attachment. X2 = CC1(C)C(=O)N(c2ccc(C#N)c(C(F)(F)F)c2)C(=S)N1c1ccc(C(=O)*)c(F)c1; X1 = O=C1CCC(N2C(=O)c3cccc(N(CC(=O)[*:2])[*:1])c3C2=O)C(=O)N1; EuK = O=C(O)CC[C@H](NC(=O)N[C@@H](CCCCN*)C(=O)O)C(=O)O; 2Nal = N[C@@H](Cc1ccc2ccccc2c1)C(=O)O

Columns and labels:
[1] = system: HSP90; assay: HSP90 degradation in LNCaP cells; type: cell-based; conditions: time-dependent evaluation
Protocol: (§1) The pretreated cells were resuspended in lysis buffer containing 50 mM Tris-HCl (pH 8.0), 150 mM NaCl, 1% (v/v) Triton X-100, and protease inhibitors. The protein concentration was determined via a BCA kit (Applygen). Each sample ([…]) was subjected to SDS‒PAGE and then transferred to a PVDF membrane. The blots were blocked in 5% (wt/v) blocking buffer. After washing three times with TBST buffer (10 mM TBS solution containing 0.1% (v/v) Tween-20), the blots were incubated with primary antibodies at 4 °C on a shaker for 16 h. After washing with TBST buffer three times, the blot was incubated with secondary antibodies at room temperature on a shaker for 2 h. After being washed three times with TBST buffer, the blots were subsequently scanned on a Typhoon Trio Variable Mode Imager.

[2] = In vivo and ex vivo fluorescence imaging (biodistribution); set-up: species or system BALB/c nude mice; conditions: Cy7-labeled, 30 mg/kg intravenous
Protocol: Fig. 5 In vivo evaluation of Psa-AR enrichment and retention. a Representative immunohistochemical (IHC) staining of PSMA and AR expression in tumor tissues from three patients with prostate cancer before and after androgen deprivation therapy. The expression levels of PSMA and AR were assessed in serial sections at identical locations. Scale bars: 40 μm. b In vivo fluorescence images of 22Rv1 xenograft mice after treatment with Cy7-labeled P-AR and Psa-AR (30 mg/kg in 200 μL of PBS) for 2 h and 24 h. c Biodistribution in the tumors and main organs of 22Rv1 xenograft mice after injection with Cy7-labeled Psa-AR (30 mg/kg in 200 μL of PBS) for 24 h. (H Heart, Li Liver, Sp Spleen, Lu Lung, Ki Kidney, T Tumor). d Quantitative analysis of the fluorescence images in (c), n = 3 per group
BALB/c nude mice (6–8 weeks old, 16–18 g) were housed in a specific-pathogen-free (SPF) environment. All experiments were conducted in accordance with the Guidelines for the Management and Use of Laboratory Animals and were approved by the Animal Research Committee of the National Center for Nanoscience and Technology (NCNST 21-202503-0020). […] For ex vivo fluorescence imaging, 22Rv1 xenograft mice were intravenously injected with Cy7-labeled Psa-AR (30 mg/kg in 200 µL of PBS) and sacrificed 24 h post-injection to excise major organs (heart, liver, spleen, lung, and kidney) and tumors.

[3] = target: CRBN, with prebound AR (AR: Psa-AR: CRBN) (Homo sapiens, UniProt P10275+Q96SW2); assay: MST binding of binary complex (Psa-AR: AR) to CRBN; conditions: binary complex Psa-AR: AR titrated against RED-CRBN 400 nM, 20 min incubation, 22 °C, n = 3, read-out: Kd, affinity for CRBN in the presence of prebound AR
Source text: Fig. 3 Polynary nanocomposite (AR: Psa-AR: CRBN) formation. a Dose‒response curve for the binding interaction between Psa-AR and the AR protein; n = 3 per group. b Dose‒response curve for the binding interaction between Psa-AR and the CRBN protein; n = 3 per group. c Dose‒response curve for the binding interaction between the binary complex (Psa-AR: AR) and CRBN, n = 3 per group. d In vitro Psa-AR self-assembly, protein binding and degradation. e Representative 22Rv1 cell CLSM images of FITC-labeled Psa-AR assembly (green channel) interacting with HSP90 (red channel) and its colocalization analysis (1–1’). […] Scale bar: 10 μm.
MST (NanoTemper Technologies GmbH, Munich, Germany) was utilized to evaluate the binding affinity between Psa-AR and RED-NHS-labeled PSMA, AR, or CRBN proteins. The PSMA, AR, and CRBN proteins were labeled with the Protein Labeling Kit RED-NHS 2nd Generation (Amine Reactive). RED-PSMA, RED-AR, and RED-CRBN proteins were diluted to a final concentration of 400 nM with PBS-T buffer (0.05% Tween 20), where the fluorescence signals satisfied the typical detection limit of the Monolith NT.115 instrument (NanoTemper Technologies). The binding affinity between Psa-AR and the RED-NHS-labeled AR protein was assessed. […] Then, 10 µL of RED-CRBN was added to each sample to achieve a final concentration of 400 nM. […] The data were analyzed by NanoTemper analysis software.

[4] = system: AR; assay: Western blot AR degradation in 22Rv1 (PSMA^KD) cells; type: cell-based; conditions: 20 μM, 48 h
Protocol: (§2) All uncropped blots are presented in Supplementary Fig. 26. j, k Representative 22Rv1 cell CLSM images of the degradation of AR after incubation with FITC-labeled Psa-AR for 12 h and quantitative analysis, n = 3 per group. Scale bar: 10 μm. l, m Representative 22Rv1 cell CLSM images of the degradation of HSP90 after incubation with FITC-labeled Psa-AR for 12 h and quantitative analysis, n = 3 per group. Scale bar: 10 μm. n AR-V7 expression in 22Rv1 cells after treatment with PBS, P-AR (20 μM), Psa-AR (20 μM) or Psa-AR (20 μM) combined with MG132 (2 μM) for 48 h, as determined by western blotting. β-Actin was used as an internal reference. o Results of apoptosis in 22Rv1 cells treated with PBS, P-AR (20 μM), or Psa-AR (20 μM) for 48 h, as detected by flow cytometry.
as §1, with “After washing with TBST buffer three times, the blot was incubated with secondary antibodies at room temperature on a shaker for 2 h. After being washed three times with TBST buffer, the blots were subsequently scanned on a Typhoon Trio Variable Mode Imager.” left out

[5] = system: AR-V7; assay: Western blot AR-V7 degradation in 22Rv1 cells; type: cell-based; conditions: 22Rv1, 20 μM, 48 h
Protocol: as §2
as §1, with “After washing with TBST buffer three times, the blot was incubated with secondary antibodies at room temperature on a shaker for 2 h. After being washed three times with TBST buffer, the blots were subsequently scanned on a Typhoon Trio Variable Mode Imager.” left out

[6] = target: PSMA protein (Homo sapiens, UniProt Q04609); assay: MST binding affinity, Psa-AR and PSMA protein; conditions: RED-NHS-labeled PSMA 400 nM, PBS-T (0.05% Tween 20), 22 °C, n = 3, read-out: Kd, binding affinity between Psa-AR and PSMA
Protocol: Fig. 1 Protein-induced self-assembly behaviors of Psa-AR in vitro. a Six tissue samples from patients with prostate tumors (1–6) and six from patients with normal prostates (1’–6’) were obtained clinically. The expression of CRBN in these samples was analyzed by immunohistochemistry (IHC).
MST (NanoTemper Technologies GmbH, Munich, Germany) was utilized to evaluate the binding affinity between Psa-AR and RED-NHS-labeled PSMA, AR, or CRBN proteins. The PSMA, AR, and CRBN proteins were labeled with the Protein Labeling Kit RED-NHS 2nd Generation (Amine Reactive). RED-PSMA, RED-AR, and RED-CRBN proteins were diluted to a final concentration of 400 nM with PBS-T buffer (0.05% Tween 20), where the fluorescence signals satisfied the typical detection limit of the Monolith NT.115 instrument (NanoTemper Technologies). The binding affinity between Psa-AR and the RED-NHS-labeled AR protein was assessed. […] Then, 10 µL of RED-CRBN was added to each sample to achieve a final concentration of 400 nM. After incubation for 20 min, the samples were loaded into standard/premium-treated capillaries. All the experiments were performed at 22 °C. The data were analyzed by NanoTemper analysis software.

[7] = system: AR; assay: Western blot AR degradation in 22Rv1 cells; type: cell-based
Protocol: as §2, §1

[8] = Cellular cytotoxicity, LNCaP; type: cell-based; conditions: human, LNCaP cells
[9] = western blot, 22Rv1, 20 μM, 48 h

Sequence of PSMA protein (Q04609 whole entry): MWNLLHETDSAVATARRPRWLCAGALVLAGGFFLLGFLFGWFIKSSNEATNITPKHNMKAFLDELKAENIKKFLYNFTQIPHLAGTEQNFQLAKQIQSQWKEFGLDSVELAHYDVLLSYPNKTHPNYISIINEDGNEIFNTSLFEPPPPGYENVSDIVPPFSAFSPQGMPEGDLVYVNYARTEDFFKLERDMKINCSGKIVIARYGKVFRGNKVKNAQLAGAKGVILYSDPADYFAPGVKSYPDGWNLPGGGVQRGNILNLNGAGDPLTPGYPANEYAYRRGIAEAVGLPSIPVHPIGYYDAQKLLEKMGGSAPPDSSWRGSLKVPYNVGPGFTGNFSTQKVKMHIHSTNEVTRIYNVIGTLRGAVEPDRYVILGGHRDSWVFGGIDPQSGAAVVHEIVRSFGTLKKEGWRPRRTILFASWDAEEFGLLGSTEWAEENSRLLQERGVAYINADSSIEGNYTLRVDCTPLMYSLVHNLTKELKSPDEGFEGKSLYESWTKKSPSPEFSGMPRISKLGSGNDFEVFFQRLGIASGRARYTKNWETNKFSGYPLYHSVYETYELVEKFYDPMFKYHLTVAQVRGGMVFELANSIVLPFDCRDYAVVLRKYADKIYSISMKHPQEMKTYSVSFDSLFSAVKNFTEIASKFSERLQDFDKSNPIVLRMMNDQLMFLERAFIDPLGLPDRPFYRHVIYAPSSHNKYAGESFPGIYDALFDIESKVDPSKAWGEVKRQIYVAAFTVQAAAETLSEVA
Sequence of CRBN, with prebound AR (AR: Psa-AR: CRBN) (Q96SW2 whole entry): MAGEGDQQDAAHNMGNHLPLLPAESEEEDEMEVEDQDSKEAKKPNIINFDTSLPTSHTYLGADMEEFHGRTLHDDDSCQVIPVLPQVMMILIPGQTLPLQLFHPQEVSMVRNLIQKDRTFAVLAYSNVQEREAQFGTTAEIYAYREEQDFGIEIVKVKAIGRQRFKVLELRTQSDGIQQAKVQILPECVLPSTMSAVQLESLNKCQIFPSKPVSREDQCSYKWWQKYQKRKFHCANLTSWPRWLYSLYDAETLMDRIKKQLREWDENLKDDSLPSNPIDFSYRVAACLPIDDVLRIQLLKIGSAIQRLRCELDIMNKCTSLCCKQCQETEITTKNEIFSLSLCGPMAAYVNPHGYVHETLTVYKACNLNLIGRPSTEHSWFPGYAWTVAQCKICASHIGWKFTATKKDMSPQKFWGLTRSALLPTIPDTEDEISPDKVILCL
Sequence of CRBN, with prebound AR (AR: Psa-AR: CRBN) (P10275 whole entry): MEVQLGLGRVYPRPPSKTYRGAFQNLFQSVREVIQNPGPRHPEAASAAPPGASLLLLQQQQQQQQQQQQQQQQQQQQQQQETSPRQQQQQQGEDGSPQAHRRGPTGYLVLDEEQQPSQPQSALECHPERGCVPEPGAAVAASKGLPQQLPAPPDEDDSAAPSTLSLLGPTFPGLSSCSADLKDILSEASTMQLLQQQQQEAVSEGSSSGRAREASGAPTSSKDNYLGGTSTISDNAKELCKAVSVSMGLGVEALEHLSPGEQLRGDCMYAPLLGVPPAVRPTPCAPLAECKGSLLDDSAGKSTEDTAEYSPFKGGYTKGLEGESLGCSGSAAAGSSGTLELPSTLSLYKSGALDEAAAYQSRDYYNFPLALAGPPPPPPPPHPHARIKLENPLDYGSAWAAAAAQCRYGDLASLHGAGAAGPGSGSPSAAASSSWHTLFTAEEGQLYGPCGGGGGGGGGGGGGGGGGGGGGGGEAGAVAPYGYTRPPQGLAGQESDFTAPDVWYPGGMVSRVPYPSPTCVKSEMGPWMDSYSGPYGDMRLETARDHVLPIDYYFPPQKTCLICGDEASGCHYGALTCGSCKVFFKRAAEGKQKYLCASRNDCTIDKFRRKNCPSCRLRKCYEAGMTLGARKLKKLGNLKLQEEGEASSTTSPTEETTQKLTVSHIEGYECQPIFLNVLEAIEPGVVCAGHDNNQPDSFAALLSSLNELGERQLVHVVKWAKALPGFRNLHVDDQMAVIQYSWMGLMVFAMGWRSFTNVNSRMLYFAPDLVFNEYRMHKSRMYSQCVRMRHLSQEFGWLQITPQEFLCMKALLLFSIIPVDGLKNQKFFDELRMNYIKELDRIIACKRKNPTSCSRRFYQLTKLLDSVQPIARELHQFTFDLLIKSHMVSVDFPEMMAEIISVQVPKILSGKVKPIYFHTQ

With `CC1(C)C(=O)N(c2ccc(C#N)c(C(F)(F)F)c2)C(=S)N1c1ccc(C(=O)NCCCC[C@H](NC(=O)CNc2cccc3c2C(=O)N(C2CCC(=O)NC2=O)C3=O)C(=O)N[C@@H](CS)C(=O)N[C@@H](CCC(N)=O)C(=O)N[C@@H](Cc2ccc(O)cc2)C(=O)N[C@@H](CC(N)=O)C(=O)N[C@@H](CCC(N)=O)C(=O)N[C@@H](Cc2ccc(O)cc2)C(=O)N[C@@H](Cc2ccc(O)cc2)C(=O)N[C@@H](Cc2ccc3ccccc3c2)C(=O)NCCCC[C@H](NC(=O)N[C@@H](CCC(=O)O)C(=O)O)C(=O)O)c(F)c1` (stereo partly drawn) [Psa-AR] (H-[X1]K(X2)CQYNQYY[2Nal]-EuK) the HSP90 degradation rate [1] was 70%, the “tumor deposition relative to P-AR” value ([2]; 2 h, 22Rv1 xenograft mice) was 4 fold and the “tumor retention, residual signal at 24 h” value ([2]; 24 h) was 78%. The Kd [3] was 1.14 µM, the “AR protein degradation in PSMA-knockdown cells” value [4] was “failed to induce significant protein degradation” and the “greater AR-V7 degradation than P-AR” value [5] was 66%. For the same compound, the Kd [6] was 0.0072 µM, the “AR protein knockdown maintained within 96-h observation period” value ([7]; 22Rv1, 20 μM, 12–96 h) was “over 99%” and the DC50 ([7]; 22Rv1 cell line, 1 to 100 μM, read-out: DC50 for AR protein degradation) was 9.45 µM. The “AR degradation compared with PBS controls” value [7, 9] was 79%, the “enhancement of AR degradation over P-AR” value [7, 9] was 45% and the IC50 [8] was 11.1 ± 1.4 µM.
